Results taken from US9346852B2, “Substituted adipic acid amides and uses thereof” (Bristol-Myers Scuibb Company, priority 2011, dated 2016).
pEC50: −log10 of the molar value.

The compounds below were run against T1, human Y4 stable CHO clonal cells (Homo sapiens, UniProt P50391) (assay: NPY4 cAMP HTRF Agonist Assay). Conditions: inhibitory cAMP assay, Gi activation by Y4 agonism, forskolin and IBMX, 30 minutes at room temperature.
T1 construct: expressed in transfected cells
Assay type: cell-based
Protocol: NPY4 cAMP HTRF Agonist Assay
The functionality of the compound at Y4 receptor was analyzed using an inhibitory cAMP assay (CISBIO, HTRF cAMP kit #62AM4PEC) to measure the Gi activation by Y4 agonism.
The human Y4 stable CHO clonal cells were maintained in culture medium (F-12 containing 10% Fetal Bovine Serum, […] GENETICIN®, […] Zeocin). Before the experiment, 5 μL of 1 uM Forskolin (Sigma, # F6886) and 100 uM IBMX (Sigma, # I5879) in PBS buffer were added into 384-well plates (PE, Proxi-plate) that were pre-dotted with […] compounds. The cells were removed from the flasks by Cellstripper, counted and adjusted to […] in PBS buffer, and added 5 μL/well (5000 cells/well) into the above 384-well plates. The cells were then covered and incubated for 30 minutes at room temperature. After incubation, 5 μL/well of D2-conjugate in HTRF lysis buffer was first added, followed by adding 5 μL/well of anti-cAMP Cryptate in HTRF lysis buffer. The plates were incubated for another 1 hour at room temperature and read on the EnVision Multilabel Plate Reader.
Compounds described herein were tested in the above assay.

T1 sequence (P50391 whole entry): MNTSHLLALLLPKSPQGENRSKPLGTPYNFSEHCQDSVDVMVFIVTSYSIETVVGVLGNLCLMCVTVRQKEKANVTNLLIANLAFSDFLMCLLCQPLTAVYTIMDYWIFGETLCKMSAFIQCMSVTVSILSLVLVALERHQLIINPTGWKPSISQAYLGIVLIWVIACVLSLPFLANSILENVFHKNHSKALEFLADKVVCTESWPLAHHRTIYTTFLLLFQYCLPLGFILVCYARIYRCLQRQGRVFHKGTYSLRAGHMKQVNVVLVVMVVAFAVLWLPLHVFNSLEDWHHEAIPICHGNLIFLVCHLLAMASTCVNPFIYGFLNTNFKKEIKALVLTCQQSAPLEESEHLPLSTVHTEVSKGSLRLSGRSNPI

Compound | pEC50
COC(=O)[C@@H]1CCC[C@@H]2SCC[C@H](NC(=O)[C@H](CC[C@H](Cc3ccccc3)C(=O)N[C@H]3CCS[C@H]4CCC[C@@H](C(=O)OC)N4C3=O)Cc3ccccc3)C(=O)N21 [Example 1, Dimethyl (4S,7S,10aS,4′S,7′S,10a′S)-4,4′-(((2R,5R)-2,5-dibenzyl-1,6-dioxo-1,6-hexanediyl)diimino)bis(5-oxooctahydro-7H-pyrido[2,1-b][1,3]thiazepine-7-carboxylate)] | 7.77
COC(=O)[C@@H]1CCC[C@@H]2SCC[C@H](NC(=O)[C@H](CC[C@H](CC(C)C)C(=O)N[C@H]3CCS[C@H]4CCC[C@@H](C(=O)OC)N4C3=O)Cc3ccccc3)C(=O)N21 [Example 4] | 6.89
COC(=O)[C@@H]1CCC[C@@H]2CCC[C@H](NC(=O)[C@H](CC[C@H](Cc3ccccc3)C(=O)N[C@H]3CCC[C@H]4CCC[C@@H](C(=O)OC)N4C3=O)Cc3ccccc3)C(=O)N21 [Example 5, Dimethyl (4S,7S,10aS,4′S,7′S,10a′S)-7,7′-(((2R,5R)-2,5-dibenzyl-1,6-dioxo-1,6-hexanediyl)diimino)bis(6-oxodecahydropyrido[1,2-a]azepine-4-carboxylate)] | 6.70
COC(=O)[C@@H]1CCC[C@@H]2SCC[C@H](NC(=O)[C@H](CC[C@H](Cc3ccc(O)cc3)C(=O)N[C@H]3CCS[C@H]4CCC[C@@H](C(=O)OC)N4C3=O)Cc3ccc(O)cc3)C(=O)N21 [Example 9, Dimethyl (4S,7S,10aS,4′S,7′S,10a′S)-4,4′-(((2R,5R)-2,5-bis(4-hydroxybenzyl)-1,6-dioxo-1,6-hexanediyl)diimino)bis(5-oxooctahydro-7H-pyrido[2,1-b][1,3]thiazepine-7-carboxylate)] | 7.85
COC(=O)[C@@H]1CCC[C@@H]2SCC[C@H](NC(=O)[C@H](CC[C@H](Cc3ccccc3)C(=O)N[C@@H]3C(=O)N4CCC[C@@H]4SC3(C)C)Cc3ccccc3)C(=O)N21 [Example 12, (4S,7S,10aS)-Methyl 4-((2R,5R)-2,5-dibenzyl-6-((3R,8aS)-2,2-dimethyl-4-oxohexahydro-2H-pyrrolo[2,1-b][1,3]thiazin-3-ylamino)-6-oxohexanamido)-5-oxooctahydro-2H-pyrido[2,1-b][1,3]thiazepine-7-carboxylate] | 7.22
COC(=O)[C@@H]1CCCN2CCC[C@H](NC(=O)[C@H](CC[C@H](Cc3ccccc3)C(=O)N[C@H]3CCCN4CCC[C@@H](C(=O)OC)N4C3=O)Cc3ccccc3)C(=O)N12 [Example 18, Dimethyl (1S,9S,1′S,9′S)-9,9′-(((2R,5R)-2,5-dibenzyl-1,6-dioxo-1,6-hexanediyl)diimino)bis(10-oxooctahydro-6H-pyridazino[1,2-a][1,2]diazepine-1-carboxylate)] | 6.81
COC(=O)[C@@H]1CCC[C@@H]2SCC[C@H](NC(=O)[C@H](CC[C@H](Cc3ccccc3)C(=O)N[C@H]3CCS[C@H]4CCCCN4C3=O)Cc3ccccc3)C(=O)N21 [Example 30, (4S,7S,10aS)-Methyl 4-((2R,5R)-2,5-dibenzyl-6-oxo-6-((4S,10aS)-5-oxooctahydro-2H-pyrido[2,1-b][1,3]thiazepin-4-ylamino)hexanamido)-5-oxooctahydro-2H-pyrido[2,1-b][1,3]thiazepine-7-carboxylate] | 6.64
COC(=O)[C@@H]1CCC[C@@H]2SCC[C@H](NC(=O)[C@H](CC[C@H](CC#N)C(=O)N[C@H]3CCS[C@H]4CCC[C@@H](C(=O)OC)N4C3=O)Cc3ccccc3)C(=O)N21 [Example 32, Dimethyl (4S,7S,10aS,4′S,7′S,10a′S)-4,4′-(((2R,5R)-2-benzyl-5-(cyanomethyl)-1,6-dioxo-1,6-hexanediyl)diimino)bis(5-oxooctahydro-7H-pyrido[2,1-b][1,3]thiazepine-7-carboxylate)] | 7.62
COC(=O)[C@@H]1CCC[C@@H]2SCC[C@H](NC(=O)[C@H](CC[C@H](Cc3ccc(O)cc3)C(=O)N[C@H]3CCS[C@H]4CCC[C@@H](C(=O)OC)N4C3=O)Cc3ccccc3)C(=O)N21 [Example 38, Dimethyl (4S,7S,10aS,4′S,7′S,10a′S)-4,4′-(((2R,5R)-2-benzyl-5-(4-hydroxybenzyl)-1,6-dioxo-1,6-hexanediyl)diimino)bis(5-oxooctahydro-7H-pyrido[2,1-b][1,3]thiazepine-7-carboxylate)] | 8.30
COC(=O)[C@@H]1CCC[C@@H]2SCC[C@H](NC(=O)[C@H](CC[C@H](CC3CCCCC3)C(=O)N[C@H]3CCS[C@H]4CCC[C@@H](C(=O)OC)N4C3=O)Cc3cccc(Cl)c3)C(=O)N21 [Example 43, Dimethyl (4S,7S,10aS,4′S,7′S,10a′S)-4,4′-(((2R,5R)-2-(3-chlorobenzyl)-5-(cyclohexylmethyl)-1,6-dioxo-1,6-hexanediyl)diimino)bis(5-oxooctahydro-7H-pyrido[2,1-b][1,3]thiazepine-7-carboxylate)] | 6.08
O=C(N[C@H]1CCCCN(c2ccccc2)C1=O)[C@H](CC[C@H](Cc1ccccc1)C(=O)N[C@H]1CCS[C@H]2CCCCN2C1=O)Cc1ccccc1 [Example 59, (2R,5R)-2,5-Dibenzyl-N1-((S)-2-oxo-1-phenylazepan-3-yl)-N6-((4S,10aS)-5-oxooctahydro-2H-pyrido[2,1-b][1,3]thiazepin-4-yl)hexanediamide] | 6.57
N#C[C@@H]1CCC[C@@H]2SCC[C@H](NC(=O)[C@H](CC[C@H](Cc3ccccc3)C(=O)N[C@H]3CCCCN(c4ccccc4)C3=O)Cc3ccccc3)C(=O)N12 [Example 72, (2R,5R)-2,5-Dibenzyl-N1-((4S,7S,10aS)-7-cyano-5-oxooctahydro-2H-pyrido[2,1-b][1,3]thiazepin-4-yl)-N6-((S)-2-oxo-1-phenylazepan-3-yl)hexanediamide] | 7.26
COC[C@@H]1CCC[C@@H]2SCC[C@H](NC(=O)[C@H](CC[C@H](Cc3ccccc3)C(=O)N[C@H]3CCCCN(c4ccccc4)C3=O)Cc3ccccc3)C(=O)N12 [Example 74, (2R,5R)-2,5-Dibenzyl-N1-((4S,7S,10aS)-7-(methoxymethyl)-5-oxooctahydro-2H-pyrido[2,1-b][1,3]thiazepin-4-yl)-N6-((S)-2-oxo-1-phenylazepan-3-yl)hexanediamide] | 6.33
COc1ccccc1N1CCCC[C@H](NC(=O)[C@H](CC[C@H](Cc2ccccc2)C(=O)N[C@H]2CCS[C@H]3CCC[C@@H](C(F)(F)F)N3C2=O)Cc2ccccc2)C1=O [Example 79, (2R,5R)-2,5-Dibenzyl-N1-((S)-1-(2-methoxyphenyl)-2-oxoazepan-3-yl)-N6-((4S,7S,10aS)-5-oxo-7-(trifluoromethyl)octahydro-2H-pyrido[2,1-b][1,3]thiazepin-4-yl)hexanediamide] | 7.74
Cc1ccccc1N1CCCC[C@H](NC(=O)[C@H](CC[C@H](Cc2ccccc2)C(=O)N[C@H]2CCS[C@H]3CC[C@@H](C(F)(F)F)CN3C2=O)Cc2ccccc2)C1=O [Example 90, (2R,5R)-2,5-Dibenzyl-N1-((S)-2-oxo-1-o-tolylazepan-3-yl)-N6-((4S,8R,10aS)-5-oxo-8-(trifluoromethyl)octahydro-2H-pyrido[2,1-b][1,3]thiazepin-4-yl)hexanediamide] | 6.57
COc1ccccc1N1CCCC[C@H](NC(=O)[C@H](CC[C@H](Cc2ccccc2)C(=O)N[C@H]2CCS[C@H]3CCC[C@@H](C#N)N3C2=O)Cc2ccccc2)C1=O [Example 96, (2R,5R)-2,5-Dibenzyl-N1-((4S,7S,10aS)-7-cyano-5-oxooctahydro-2H-pyrido[2,1-b][1,3]thiazepin-4-yl)-N6-((S)-1-(2-methoxyphenyl)-2-oxoazepan-3-yl)hexanediamide] | 8.15
CCC[C@@H](CC[C@H](Cc1cccc(F)c1)C(=O)N[C@H]1CCS[C@H]2CCC[C@@H](C(=O)OC)N2C1=O)C(=O)N[C@H]1CCS[C@H]2CCC[C@@H](C(=O)OC)N2C1=O [Example 100] | 6.68
